Test results as given in paper PMC5540490, “Plasma concentrations of caspofungin in a critically ill patient with morbid obesity” (Critical Care, 2017).
Read-outs that look alike come from different tables or passages of the source.

Columns and labels:
[1] = Clinical course and tolerability of caspofungin treatment in the patient; type: in vivo, human; conditions: 100 mg/day for 14 days; one patient
Excerpt: (§1) A morbidly obese person (BMI = 50 kg/m^2) was admitted to our ICU after surgical treatment of anastomotic leak in the postoperative period of elective laparoscopic bariatric surgery. The patient was in septic shock, with Candida multicolonization and other risk factors of invasive candidiasis. We decided to start antimicrobial treatment, including meropenem, linezolid and caspofungin. With the intention of maximizing the potential effectiveness of antifungal treatment, caspofungin at a dose of 100 mg/day was chosen. The caspofungin dose was calculated using a population pharmacokinetic model. Target AUC/MIC was set at 860 and therefore AUC values above 107 mg*h/L were necessary assuming MIC = 0.125 mg/L [2]. […] The manufacturer recommends caspofungin dose reduction when AUC values are above 210 mg*h/L and, accordingly, drug exposure was considered safe.

[2] = Plasma/serum concentrations of caspofungin in a critically ill patient with morbid obesity; type: in vivo; conditions: male, human, plasma, 100 mg/day; for Cmax: read-out: Cpeak
Excerpt: The aim of the study was to describe the pharmacokinetic behaviour of caspofungin in a critically ill patient with morbid obesity who received doses of caspofungin higher than labelled doses.
as §1

[3] = three days later, one morbidly obese ICU patient

CC[C@H](C)C[C@H](C)CCCCCCCCC(=O)N[C@H]1C[C@@H](O)[C@@H](NCCN)NC(=O)[C@@H]2[C@@H](O)CCN2C(=O)[C@H]([C@H](O)CCN)NC(=O)[C@H]([C@H](O)[C@@H](O)c2ccc(O)cc2)NC(=O)[C@@H]2C[C@@H](O)CN2C(=O)[C@H]([C@@H](C)O)NC1=O [caspofungin]
Adverse effects related to the drug [1]: without any adverse effects
AUC ([2]; after the first dose, one morbidly obese ICU patient): 116 µg·h/mL
Cmax ([2]; after the first dose, one morbidly obese ICU patient (BMI 50 kg/m^2) in septic shock): 4510 ng/mL
AUC [2, 3]: 140 µg·h/mL
Cmax [2, 3]: 5970 ng/mL
level at 72 h ([2]; three days later, one morbidly obese ICU patient, read-out: Ctrough): 1760 ng/mL
